From US10711029B2, “Beta-d-2′-deoxy-2′-alpha-fluoro-2′-beta-c-substituted-4′fluoro-n6-substituted-6-amino-2-substituted purine nucleotides for the treatment of hepatitis c virus infection” (Atea Pharmaceuticals, Inc., priority 2016, dated 2020)

Tests used:
[1] = Cytotoxicity in the replicon cells (staining with STT); type: cell-based; conditions: human, Huh-7 luc/neo ET cells, read-out: HCV Replicon CC50
Method: (§1) Huh-7 luc/neo ET cells bearing a discistronic HCV genotype 1b luciferase reporter replicon were plated at 7.5×10^3 cells/mi in duplicate 96-well plates for the parallel determination of antiviral efficacy (EC50) and cytotoxicity (TC50). The plates were cultured for 24 hours prior to the addition of compounds. Six serial one half log dilutions of the test articles (high test concentration of 100.0 μM. or high test concentration of 1.0 μM) and human interferon-alpha2b (high test 10.0 U/ml) were prepared in cell culture medium and added to the cultured cells in triplicate wells for each dilution. Six wells in the test plates received medium alone as an untreated control. Following 72 hours of culture in the presence of compound, one of the plates was used for the determination of cytotoxicity by staining with STT and the other for antiviral efficacy by determination of luciferase reporter activity. Cytotoxicity and efficacy data were collected and imported into a customized Excel workbook for determination of the TC50 and EC50 values.

[2] = test system: HCV genotype 1b luciferase reporter replicon; test: HCV replicon assay, antiviral efficacy by luciferase reporter activity; type: cell-based
Method: as §1

[3] = biological target: T1, adenosine deaminase (Homo sapiens, UniProt P00813); conditions: over a long period (120 minutes); WO 2010/091386; cited from earlier work
T1 sequence (P00813 1-363): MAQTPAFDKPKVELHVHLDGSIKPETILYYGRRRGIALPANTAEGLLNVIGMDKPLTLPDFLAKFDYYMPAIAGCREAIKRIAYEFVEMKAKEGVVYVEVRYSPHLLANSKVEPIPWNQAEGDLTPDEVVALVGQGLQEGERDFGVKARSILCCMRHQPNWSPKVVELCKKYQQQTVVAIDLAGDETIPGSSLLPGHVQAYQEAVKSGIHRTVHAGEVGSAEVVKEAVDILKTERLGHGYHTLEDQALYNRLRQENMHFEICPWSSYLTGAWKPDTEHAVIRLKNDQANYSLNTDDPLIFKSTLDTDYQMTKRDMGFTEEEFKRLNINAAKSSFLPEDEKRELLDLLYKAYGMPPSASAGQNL

[4] = biological target: HCV RNA-dependent RNA polymerase (Hepatitis C virus genotype 1a, UniProt P27958); conditions: Ivanov et al., Russian J. Bioorg. Chem. 2010; cited from earlier work
HCV RNA-dependent RNA polymerase, sequence (P27958 2421-3011): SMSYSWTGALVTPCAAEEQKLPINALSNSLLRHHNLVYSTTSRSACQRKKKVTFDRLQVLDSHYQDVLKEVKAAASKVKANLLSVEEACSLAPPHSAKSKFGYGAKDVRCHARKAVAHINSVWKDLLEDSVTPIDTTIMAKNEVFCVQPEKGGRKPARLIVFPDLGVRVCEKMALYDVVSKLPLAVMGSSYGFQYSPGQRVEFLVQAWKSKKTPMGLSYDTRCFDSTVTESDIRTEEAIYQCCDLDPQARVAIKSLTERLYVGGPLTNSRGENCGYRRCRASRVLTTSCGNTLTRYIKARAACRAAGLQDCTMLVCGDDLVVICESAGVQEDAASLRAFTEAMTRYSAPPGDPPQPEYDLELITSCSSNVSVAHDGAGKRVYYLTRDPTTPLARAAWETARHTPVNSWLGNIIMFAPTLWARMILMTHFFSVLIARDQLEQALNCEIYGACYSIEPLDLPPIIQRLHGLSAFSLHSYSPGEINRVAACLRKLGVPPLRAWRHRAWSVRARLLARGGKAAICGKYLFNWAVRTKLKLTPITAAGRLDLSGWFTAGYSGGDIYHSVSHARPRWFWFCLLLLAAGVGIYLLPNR

[5] = test system: Huh-7 luc/neo ET cells; test: Cytotoxicity in the replicon cells (staining with STT); type: cell-based; conditions: 72 hours, read-out: HCV Replicon CC50
Method: as §1

| SMILES | CC50 at 72 h [1] | Fold increase in activity compared to parent nucleoside [2] | other results |
| --- | --- | --- | --- |
| CN(c1nc(N)nc2c1ncn2[C@@H]1O[C@](F)(CO)C(O)[C@@]1(C)F)C1CC1 (stereo partly drawn) [Cmpd 3] | > 100 µM |  |  |
| CNc1nc(F)nc2c1ncn2[C@@H]1O[C@](F)(CO[P@@](=O)(N[C@@H](C)C(=O)OC(C)C)Oc2ccccc2)C(O)[C@@]1(C)F (stereo partly drawn) [Cmpd 17] | > 50 µM | 4.3 |  |
| CN(C)c1nc(N)nc2[nH]cnc12 [N^6-dimethyl-2,6-diaminopurine] |  |  | deamination by adenosine deaminase [3]: not substantially deaminated |
| CCN(C)c1nc(N)nc2c1ncn2[C@@H]1O[C@](F)(CO)C(O)[C@@]1(C)F (stereo partly drawn) [Cmpd 13] | > 100 µM |  |  |
| CC(C)OC(=O)[C@H](C)N[P@](=O)(OC[C@@]1(F)O[C@@H](n2cnc3c(N(C)C)nc(F)nc32)[C@](C)(F)[C@@H]1O)Oc1ccccc1 [Cmpd 8] | 35.3 µM | 2521 |  |
| CNc1nc(N)nc2c1ncn2[C@@H]1O[C@](F)(CO)C(O)[C@@]1(C)F (stereo partly drawn) [Cmpd 5] | > 100 µM |  |  |
| CN(C)c1nc(N)nc2c1ncn2[C@@H]1O[C@](F)(CO)C(O)[C@@]1(C)F (stereo partly drawn) [Cmpd 1] | > 100 µM |  |  |
| CC(C)OC(=O)[C@H](C)N[P@](=O)(OC[C@@]1(F)O[C@@H](n2cnc3c(N(C)C)nc(N)nc32)[C@](C)(F)C1O)Oc1ccccc1 (stereo partly drawn) [Cmpd 16] | > 50 µM | 40 |  |
| O=c1ccn([C@@H]2O[C@](F)(COP(=O)(O)OP(=O)(O)OP(=O)(O)O)[C@@H](O)[C@H]2O)c(=O)[nH]1 [4′fluorouridine 5′-O-triphosphate] |  |  | inhibition of HCV RNA-dependent RNA polymerase [4]: effective inhibitor |
| CC(C)OC(=O)[C@H](C)NP(=O)(OC[C@@]1(F)O[C@@H](n2cnc3c(N4CCCC4)nc(N)nc32)[C@](C)(F)C1O)Oc1ccccc1 (stereo partly drawn) [Cmpd 12] | > 10 µM | >31.3 |  |
| C[C@@]1(F)C(O)[C@@](F)(CO)O[C@H]1n1cnc2c(N3CCCC3)nc(N)nc21 (stereo partly drawn) [Cmpd 11] | > 100 µM |  |  |
| CNc1nc(N)nc2c1ncn2[C@@H]1O[C@](F)(COP(=O)(N[C@@H](C)C(=O)OC(C)C)Oc2ccccc2)C(O)[C@@]1(C)F (stereo partly drawn) [Cmpd 6] | > 10 µM | 10,000 |  |
| CC(C)OC(=O)[C@H](C)NP(=O)(OC[C@@]1(F)O[C@@H](n2cnc3c(N(C)C4CC4)nc(N)nc32)[C@](C)(F)C1O)Oc1ccccc1 (stereo partly drawn) [Cmpd 15] |  | 3332 | CC50 [5]: > 50 µM |
| CC(C)OC(=O)[C@H](C)NP(=O)(OC[C@@]1(F)O[C@@H](n2cnc3c(N(C)C4CC4)nc(N)nc32)[C@](C)(F)C1O)Oc1ccccc1 (stereo partly drawn) [Cmpd 4] |  | 667 | CC50 [5]: > 10 µM |
| CC(C)OC(=O)[C@H](C)NP(=O)(OC[C@@]1(F)O[C@@H](n2cnc3c(N(C)C)nc(N)nc32)[C@](C)(F)C1O)Oc1ccccc1 (stereo partly drawn) [Cmpd 2] | > 10 µM | 2,941 |  |
| CNc1nc(F)nc2c1ncn2[C@@H]1O[C@](F)(CO[P@@](=O)(N[C@@H](C)C(=O)OC(C)C)Oc2ccccc2)[C@@H](O)[C@@]1(C)F [Cmpd 10] | 54 µM | 4.7 |  |
| CCN(C)c1nc(N)nc2c1ncn2[C@@H]1O[C@](F)(COP(=O)(N[C@@H](C)C(=O)OC(C)C)Oc2ccccc2)C(O)[C@@]1(C)F (stereo partly drawn) [Cmpd 14] | > 10 µM | 434 |  |
